Reference: article PMC4067310, “From Pan-Reactive KV7 Channel Opener to Subtype Selective Opener/Inhibitor by Addition of a Methyl Group” (PLoS ONE, 2014)
Like-named read-outs stand apart in the source and are kept apart here.

Key:
KV7.4 = target: T1, KV7.4 (Homo sapiens, UniProt P56696); assay: Two-electrode voltage-clamp of KV7.4 expressed in Xenopus laevis oocytes; format: cell-based
T1 construct: expressed in transfected cells; host or cells: Xenopus laevis oocytes injected with cRNA (pGEM-HE vector)
T1 sequence (P56696 1-695): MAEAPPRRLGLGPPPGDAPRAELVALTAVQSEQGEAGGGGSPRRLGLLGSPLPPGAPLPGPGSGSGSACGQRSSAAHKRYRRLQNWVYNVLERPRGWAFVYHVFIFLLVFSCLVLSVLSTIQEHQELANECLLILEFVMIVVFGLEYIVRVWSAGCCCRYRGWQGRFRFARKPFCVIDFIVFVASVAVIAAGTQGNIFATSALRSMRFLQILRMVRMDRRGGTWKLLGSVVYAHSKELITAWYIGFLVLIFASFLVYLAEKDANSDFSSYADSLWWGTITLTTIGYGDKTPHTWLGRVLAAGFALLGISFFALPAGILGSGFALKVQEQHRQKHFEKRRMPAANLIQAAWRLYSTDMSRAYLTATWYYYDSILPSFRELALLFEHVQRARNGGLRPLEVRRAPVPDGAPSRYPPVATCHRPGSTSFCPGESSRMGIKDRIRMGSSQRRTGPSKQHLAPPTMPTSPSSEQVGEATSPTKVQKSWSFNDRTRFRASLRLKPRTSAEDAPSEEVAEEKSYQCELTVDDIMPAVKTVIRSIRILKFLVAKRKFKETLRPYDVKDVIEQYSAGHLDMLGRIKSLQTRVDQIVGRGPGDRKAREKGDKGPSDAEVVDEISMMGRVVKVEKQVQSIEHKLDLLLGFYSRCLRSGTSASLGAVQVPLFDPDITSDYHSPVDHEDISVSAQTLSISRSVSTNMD
Method: Point mutations were introduced using mutated oligonucleotide extension (PfuTurbo Polymerase, Stratagene, La Jolla, CA, USA) from a plasmid template harboring the cDNA of interest, digested with DpnI (Fermentas, St. Leon-Roth, Germany) and transformed into E.coli XL1 Blue cells. The construct was verified by complete DNA sequencing of the cDNA insert. cRNA was prepared from linearized human wild-type (WT) and mutant KV7 channels in the pGEM-HE vector using the T7 m-Message Machine kit (Ambion, Austin, TX, USA) according to the manufacturer's instructions.
Extraction of Xenopus laevis oocytes and injection of cRNA was performed as described previously. Oocytes were kept in Modified Barth's Saline (in mM: 88 NaCl, 1 KCl, 2.4 NaHCO3, 0.41 CaCl2, 0.82 MgSO4, 0.3 Ca(NO3)2, 15 HEPES, pH 7.4 supplemented with 100 U/mL penicillin and 100 µg/mL streptomycin) at 18°C, and currents were recorded after 2-7 days. The care of Xenopus laevis and the oocyte extraction procedure were performed according to national guidelines and approved by the Danish Animal Experiments Inspectorate.
KV7 currents in Xenopus laevis oocytes were recorded using two-electrode voltage-clamp at room temperature in Ringer buffer (in mM: 115 NaCl, 2.5 KCl, 1.8 CaCl2, 0.1 MgCl2, 10 HEPES, pH 7.4) as described previously. Data was acquired using pCLAMP 10.2 software (Molecular Devices, CA, USA) and analyzed using pCLAMP 10.2 and GraphPad Prism 4.0 (GraphPad Software Inc., CA, USA). Currents were elicited from a holding potential of −80 mV by 5 s steps to potentials between −100 and +50 mV in 10 mV increments, followed by a 2 s step to −120 mV.
(§1) SMB-1 was dissolved in dimethyl sulfoxide (DMSO) to obtain a concentrated stock solution. On the day of experiments the stock solution was thawed and diluted in Ringer buffer to the final concentrations. A concentration of 10 µM SMB-1 was used unless indicated otherwise. The final DMSO concentration never exceeded 0.1%.
Current – voltage (I–V) relationship curves were generated by normalizing the steady-state peak current measured at potentials between −100 and +50 mV to the current measured at +50 mV in control recordings and plotting the values against the test potential.
The voltage-dependence of activation was determined from tail current analysis using the current measured immediately after the transient capacitive current after stepping to −120 mV from potentials between −100 mV and +50 mV. Data was normalized to extend from 0–1 and the tail current-voltage relationship was fitted to the Boltzmann equation: [drawing 1] (Equation\;1) where I max is the maximum tail current, I min is the minimum tail current, V0.5 is the potential for half maximal activation and k is the slope factor. A V0.5 was calculated for each individual experiment and statistical significance was estimated by paired two-tailed Student's t-test.
Activation kinetics for KV7.4 and KV7.4-W242L was determined by fitting the traces recorded at potentials between −30 and +50 mV to a single exponential function: [drawing 3] (Equation\;3) where I(t) is the current at time t, I 0 is the peak current and τ is the activation time constant.
For investigation of deactivation kinetics the tail current traces recorded at −120 mV when stepping from the channels' respective ∼V0.5 were fitted to a single exponential function (Eq. 3).
Dose-response curves from electrophysiological experiments were made by plotting the increase in steady state current at +50 mV expressed in percentages as a function of drug concentration. The data were then analyzed by non-linear regression and fitted to the equation for sigmoidal dose-response with variable slope: [drawing 4] (Equation\;4) where R1 is the initial response, R2 is the maximum response, X is the logarithm of the drug concentration and nH is the slope (Hill coefficient) of the curve.

[1] = Brain and plasma exposure in rats after subcutaneous administration; format: in vivo; settings: male, Sprague-Dawley, sc, rat, 20 mg/kg s.c.; for concentration at 30 min / concentration at 120 min: n = 3, mean ± S.E.M
Method: Brain and plasma exposure of SMB-1 was evaluated in male Sprague-Dawley rats (225–250 g, Charles River Lab., UK). SMB-1 was administered subcutaneously in solution at a dose of 20 mg/kg in 25% solutol (dose volume 5 ml/kg) and exposure was assessed after 30 and 120 min (n = 3). Under isoflurane anesthesia, cardiac blood was obtained in EDTA-coated tubes and centrifuged for 10 min at 4°C, after which plasma was harvested. While still under anesthesia, the animal was decapitated, the brain was removed and brain homogenate was prepared by homogenizing the whole brain with 70% acetonitrile (1∶4 v/v) followed by centrifugation and collection of the supernatant. Concentrations of SMB-1 were determined using turboflow chromatography (dual column, focus mode; Thermo Fisher Scientific, Waltham, MA) followed by tandem mass spectrometry detection (Sciex API-3000 MS; Applied Biosystems, Foster City, CA). The limit of detection was 1 ng/ml in plasma and 5 ng/g in brain.

[2] = Visual inspection of solution in Ringer buffer for precipitation; format: physicochemical
Method: as §1
To determine the potency of SMB-1 on KV7.2 the compound was tested at four concentrations (0.4, 2, 10 and 50 µM). […] The current amplitude in percentage of control at +50 mV was plotted against the logarithm of the concentration.

[3] = brain, read-out: Brain total concentration
[4] = plasma, read-out: Plasma total concentration

In the case of C[C@@H](c1ccc2c(c1)N(CC1CC1)CCO2)N(C)C(=O)/C=C/c1ccccc1F [SMB-1, (E)-N-[(S)-1-(4-Cyclopropylmethyl-3,4-dihydro-2H-1,4-benzoxazin-6-yl)-ethyl]-3-(2-fluoro-phenyl)-N-methyl-acrylamide], the current amplitude, % of control at 10 µM (KV7.4; 10 µM SMB-1, +50 mV, n = 8) is reported as 184 ± 12.4%, the “effect on τact” value (KV7.4; 10 µM, at all potentials tested) is reported as “significantly increased” and the “τdeact, deactivation time constant in presence of compound” value (KV7.4; 10 µM, control 10.3±0.6 ms, n = 8, p<0.001) is reported as 16.4 ± 1.2 ms. The “V0.5, voltage-dependence of activation in presence of compound” value (KV7.4; 10 µM, control −0.2±3.6 mV, n = 8, p = 0.59) was −1.4±3.4 mV, the Emax (KV7.4; +50 mV, n = 5, read-out: maximal efficacy) was 213 ± 33.1% and the EC50 (KV7.4; increase in steady state current at +50 mV, n = 5) was 5.7 µM. The concentration at 30 min [1, 3] was 0.55 ± 0.04 µM, the concentration at 120 min [1, 3] was 0.44 ± 0.07 µM and the Kp at 2 h ([1]; brain/plasma, 30 and 120 min, read-out: brain/plasma partition coefficient) was 0.04 to 0.07. The concentration at 30 min [1, 4] was 14 ± 1.5 µM, the concentration at 120 min [1, 4] was 6.4 ± 0.7 µM and the “concentration above which the drug precipitated” value [2] was “above 50 µM”.
